Consider two compounds from publication PMC4620497 (Scientific Reports, 2015).

Test [1] deals with ERBB2 (Homo sapiens, UniProt P04626). Set-up: method as in earlier work. Particulars: Table S1; cited from earlier work.
For test [2], the system named is A2058. Description: MTT cell viability assay. Particulars: Homo sapiens, A2058, 72 h.
Test [3] concerns wnt8.1 RNA injected zebrafish embryos. Description: Zebrafish wnt8.1 rescue experiment. It counts as in vivo. Particulars: 10 μM after microinjection of wnt8.1 RNA.
Test [4] deals with T1, ULK1 (Homo sapiens, UniProt O75385).
T1 construct: purchased DiscoveRx KINOMEscan (Ambit Biosciences)
Description: KINOMEscan panel screen. In kind it is binding. The settings on record: read-out: Percent Control(%).

The target of test [5] is T2, RIOK1 (Homo sapiens, UniProt Q9BRS2).
T2 construct: purchased DiscoveRx KINOMEscan (Ambit Biosciences)
In words: KINOMEscan panel screen. It counts as binding. The settings on record: read-out: Percent Control(%).

Test [6] has as its target T3, AKT3 (Homo sapiens, UniProt Q9Y243).
T3 construct: purchased DiscoveRx KINOMEscan (Ambit Biosciences)
Description: KINOMEscan panel screen. It counts as binding. The settings on record: read-out: Percent Control(%).

Test [7] addresses T4, KIT(V559D,V654A) (Homo sapiens, UniProt P10721, V559D/V654A).
T4 construct: purchased DiscoveRx KINOMEscan (Ambit Biosciences)
Description: KINOMEscan panel screen. In kind it is binding. Particulars: read-out: Percent Control(%).

Test [8] concerns the target T5, ABL1(E255K)-phosphorylated (Homo sapiens, UniProt P00519, E255K).
T5 construct: purchased DiscoveRx KINOMEscan (Ambit Biosciences)
In words: KINOMEscan panel screen. Particulars: read-out: Percent Control(%). It counts as binding.

In test [9] the target is T6, EPHB1 (Homo sapiens, UniProt P54762).
T6 construct: purchased DiscoveRx KINOMEscan (Ambit Biosciences)
T6 sequence (P54762 18-984): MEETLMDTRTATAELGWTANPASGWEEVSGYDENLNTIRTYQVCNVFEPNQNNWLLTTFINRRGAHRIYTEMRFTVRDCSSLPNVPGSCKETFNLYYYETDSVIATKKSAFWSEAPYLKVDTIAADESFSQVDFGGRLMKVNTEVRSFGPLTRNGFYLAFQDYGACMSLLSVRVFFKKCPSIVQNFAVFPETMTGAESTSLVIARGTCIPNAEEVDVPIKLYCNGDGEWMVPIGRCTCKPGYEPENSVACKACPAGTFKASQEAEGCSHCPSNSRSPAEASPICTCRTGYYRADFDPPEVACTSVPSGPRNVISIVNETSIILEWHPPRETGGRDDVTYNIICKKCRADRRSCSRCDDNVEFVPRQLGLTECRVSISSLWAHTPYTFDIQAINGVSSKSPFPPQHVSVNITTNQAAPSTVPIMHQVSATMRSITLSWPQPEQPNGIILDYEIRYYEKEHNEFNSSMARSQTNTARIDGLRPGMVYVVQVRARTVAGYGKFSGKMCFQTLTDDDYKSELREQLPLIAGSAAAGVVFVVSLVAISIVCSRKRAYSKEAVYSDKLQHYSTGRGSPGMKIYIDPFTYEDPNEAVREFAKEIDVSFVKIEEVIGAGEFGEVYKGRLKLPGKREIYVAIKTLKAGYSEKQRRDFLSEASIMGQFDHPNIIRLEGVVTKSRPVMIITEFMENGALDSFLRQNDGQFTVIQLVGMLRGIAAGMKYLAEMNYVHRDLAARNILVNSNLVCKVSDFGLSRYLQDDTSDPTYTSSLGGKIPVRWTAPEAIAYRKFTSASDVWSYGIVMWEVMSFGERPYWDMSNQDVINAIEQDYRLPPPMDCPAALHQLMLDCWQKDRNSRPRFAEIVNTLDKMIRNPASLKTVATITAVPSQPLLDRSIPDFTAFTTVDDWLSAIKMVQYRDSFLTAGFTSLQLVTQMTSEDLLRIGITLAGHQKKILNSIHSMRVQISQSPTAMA
Description: KINOMEscan panel screen. In kind it is binding. The settings on record: read-out: Percent Control(%).

Test [10] addresses T7, HPK1 (Homo sapiens, UniProt Q92918).
T7 construct: purchased DiscoveRx KINOMEscan (Ambit Biosciences)
In words: KINOMEscan panel screen. In kind it is binding. Particulars: read-out: Percent Control(%).

For test [11], the target named is T8, INSR (Homo sapiens, UniProt P06213).
T8 construct: purchased DiscoveRx KINOMEscan (Ambit Biosciences)
In words: KINOMEscan panel screen. In kind it is binding. Particulars: read-out: Percent Control(%).

In test [12] the target is T9, DYRK1B (Homo sapiens, UniProt Q9Y463).
T9 construct: purchased DiscoveRx KINOMEscan (Ambit Biosciences)
T9 sequence (Q9Y463 whole entry): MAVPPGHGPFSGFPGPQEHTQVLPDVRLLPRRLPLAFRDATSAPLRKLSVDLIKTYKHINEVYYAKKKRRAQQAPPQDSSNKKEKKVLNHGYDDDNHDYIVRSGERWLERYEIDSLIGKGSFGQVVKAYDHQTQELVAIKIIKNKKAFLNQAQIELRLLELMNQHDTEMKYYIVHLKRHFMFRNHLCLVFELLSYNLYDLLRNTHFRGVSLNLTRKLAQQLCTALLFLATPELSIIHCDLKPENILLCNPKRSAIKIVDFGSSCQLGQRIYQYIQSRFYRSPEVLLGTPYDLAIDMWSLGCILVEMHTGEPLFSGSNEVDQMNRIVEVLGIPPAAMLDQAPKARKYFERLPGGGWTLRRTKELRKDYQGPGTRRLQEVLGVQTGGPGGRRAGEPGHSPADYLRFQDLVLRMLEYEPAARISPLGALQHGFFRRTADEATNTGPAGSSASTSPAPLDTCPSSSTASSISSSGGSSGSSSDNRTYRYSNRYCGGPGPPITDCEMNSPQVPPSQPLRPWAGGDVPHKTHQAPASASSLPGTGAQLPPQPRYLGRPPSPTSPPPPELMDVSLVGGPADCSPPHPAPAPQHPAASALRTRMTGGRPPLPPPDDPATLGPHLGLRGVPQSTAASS
Description: KINOMEscan panel screen. Particulars: read-out: Percent Control(%). In kind it is binding.

For test [13], the system named is H358. Description: MTT cell viability assay. Particulars: Homo sapiens, NCI-H358, 72 h.
For test [14], the target named is T10, RSK4(Kin.Dom.2-C-terminal) (Homo sapiens, UniProt Q9UK32).
T10 construct: RSK4(Kin.Dom.2-C-terminal); purchased DiscoveRx KINOMEscan (Ambit Biosciences)
Description: KINOMEscan panel screen. It counts as binding. Particulars: read-out: Percent Control(%).

Test [15] concerns normal PBMCs. Description: Long-term culture-initiating cell (LTC-IC) assay. Particulars: 10 nM and 50 nM. In kind it is cell-based, human. The method, then: (§1) In addition to the SP cell assay, we also evaluated the effects of SKLB-677 on the long-term culture-initiating (LTC-IC) cells; the long-term culture of LTC-IC cells can be used as surrogate markers of self-renewal capacity. SKLB-677 treated primary AML PBMCs or normal PBMCs were co-cultured with M2-10B4 stromal cells for 6 weeks, and then the colony formation capacity of LTC-IC cells were determined. In this assay, three primary AML PBMC samples and three normal PBMC samples were included, and each sample was conducted in triplicate.
(§2) PBMCs from AML patients (n = 3) and normal people (n = 3) were plated on M2-10B4 feeder cell layers (irradiated with 8000cGy) established in 6-well plates in HLTM medium (Myelocult H5100, […]) freshly supplemented with 10^−6 M hydrocortisone ([…]). Cultures were maintained with 0.1% DMSO or SKLB-677 for […] with weekly half-media changes, before seeding harvested cells into Colony-forming unit assays (cells were seeded in ultra-low attachment 6-well plates (Corning) in triplicate with the complete MethoCult Media ([…]) for 14 days). The assay for each sample was performed in triplicate. The colonies were counted under a microscope, and an obvious and visible cell cluster was considered a colony. The representative images were taken on an Axiovert 200 microscope with an AxiocamMRm camera with 0.30 aperture. Image acquisition software: AxioVisionRell 4.8.
(§3) Figure 4 The in vitro effects of SKLB-677 on leukemia side population (SP) cells and leukemia-initiating cells (LICs). (a) MV4-11 cells were stained with Hoechst 33342 after a treatment of SKLB-677 for 12 h. […] (b) The separated PBMCs were incubated on M2-10B4 stromal cells with SKLB-677 (1 nM and 10 nM for primary AML PBMCs, 10 nM and 50 nM for normal PBMCs) and/or 0.1% DMSO and then half medium replaced weekly for six weeks in long-term culture-initiating cells (LTC-IC) assays. Representative CAFCs (cobble stone area forming cells, the clusters of LTC-IC cells) are shown (left, black arrows).

In test [16] the test system is primary AML PBMCs. In words: Long-term culture-initiating cell (LTC-IC) assay. In kind it is cell-based, human. On the procedure: as §1, §2, §3
Test [17] concerns zebrafish embryos. Description: Zebrafish development experiment (posterior axis formation). The settings on record: added at 4hpf, observed after 24hpf. In kind it is in vivo.
Test [18] has as its target T11, MERTK (Homo sapiens, UniProt Q12866).
T11 construct: purchased DiscoveRx KINOMEscan (Ambit Biosciences)
Description: KINOMEscan panel screen. It counts as binding. Particulars: read-out: Percent Control(%).

In test [19] the target is T12, SBK1 (Homo sapiens, UniProt Q52WX2).
T12 construct: purchased DiscoveRx KINOMEscan (Ambit Biosciences)
Description: KINOMEscan panel screen. The settings on record: read-out: Percent Control(%). In kind it is binding.

The target in test [20] is T13, RET(V804M) (Homo sapiens, UniProt P07949, V804M).
T13 construct: purchased DiscoveRx KINOMEscan (Ambit Biosciences)
T13 sequence (P07949 29-1114 V804M): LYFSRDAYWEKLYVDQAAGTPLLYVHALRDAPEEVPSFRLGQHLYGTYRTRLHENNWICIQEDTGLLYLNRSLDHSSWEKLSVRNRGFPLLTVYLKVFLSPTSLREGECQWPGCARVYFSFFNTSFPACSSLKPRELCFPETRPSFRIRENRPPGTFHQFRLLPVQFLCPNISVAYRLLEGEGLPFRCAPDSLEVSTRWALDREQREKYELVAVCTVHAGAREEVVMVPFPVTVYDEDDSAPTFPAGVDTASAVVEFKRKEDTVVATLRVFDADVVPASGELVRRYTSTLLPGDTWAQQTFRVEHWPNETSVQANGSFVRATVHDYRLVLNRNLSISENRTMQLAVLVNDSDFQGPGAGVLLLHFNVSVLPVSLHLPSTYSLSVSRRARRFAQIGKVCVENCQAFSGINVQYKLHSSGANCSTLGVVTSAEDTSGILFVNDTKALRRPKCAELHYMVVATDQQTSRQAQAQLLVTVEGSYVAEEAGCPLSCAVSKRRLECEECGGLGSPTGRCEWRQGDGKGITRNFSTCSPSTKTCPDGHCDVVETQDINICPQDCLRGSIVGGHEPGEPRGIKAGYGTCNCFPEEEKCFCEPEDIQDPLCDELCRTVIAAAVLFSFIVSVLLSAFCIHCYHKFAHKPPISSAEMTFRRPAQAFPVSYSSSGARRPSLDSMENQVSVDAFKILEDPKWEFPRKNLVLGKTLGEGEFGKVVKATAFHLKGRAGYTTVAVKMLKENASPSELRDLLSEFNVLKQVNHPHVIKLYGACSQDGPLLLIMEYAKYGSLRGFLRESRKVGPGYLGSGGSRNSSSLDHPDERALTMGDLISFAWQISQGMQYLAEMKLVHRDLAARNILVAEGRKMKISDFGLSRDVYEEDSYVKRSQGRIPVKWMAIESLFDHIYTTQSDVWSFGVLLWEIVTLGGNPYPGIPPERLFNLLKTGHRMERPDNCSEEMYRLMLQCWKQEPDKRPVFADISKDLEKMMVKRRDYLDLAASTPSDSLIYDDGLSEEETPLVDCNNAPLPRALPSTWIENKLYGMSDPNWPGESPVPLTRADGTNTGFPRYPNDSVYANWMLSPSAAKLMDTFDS
In words: KINOMEscan panel screen. It counts as binding. Particulars: read-out: Percent Control(%).

Test [21] has as its target T14, LATS2 (Homo sapiens, UniProt Q9NRM7).
T14 construct: purchased DiscoveRx KINOMEscan (Ambit Biosciences)
In words: KINOMEscan panel screen. In kind it is binding. Particulars: read-out: Percent Control(%).

Test [22] deals with T15, MYO3B (Homo sapiens, UniProt Q8WXR4).
T15 construct: purchased DiscoveRx KINOMEscan (Ambit Biosciences)
T15 sequence (Q8WXR4 whole entry): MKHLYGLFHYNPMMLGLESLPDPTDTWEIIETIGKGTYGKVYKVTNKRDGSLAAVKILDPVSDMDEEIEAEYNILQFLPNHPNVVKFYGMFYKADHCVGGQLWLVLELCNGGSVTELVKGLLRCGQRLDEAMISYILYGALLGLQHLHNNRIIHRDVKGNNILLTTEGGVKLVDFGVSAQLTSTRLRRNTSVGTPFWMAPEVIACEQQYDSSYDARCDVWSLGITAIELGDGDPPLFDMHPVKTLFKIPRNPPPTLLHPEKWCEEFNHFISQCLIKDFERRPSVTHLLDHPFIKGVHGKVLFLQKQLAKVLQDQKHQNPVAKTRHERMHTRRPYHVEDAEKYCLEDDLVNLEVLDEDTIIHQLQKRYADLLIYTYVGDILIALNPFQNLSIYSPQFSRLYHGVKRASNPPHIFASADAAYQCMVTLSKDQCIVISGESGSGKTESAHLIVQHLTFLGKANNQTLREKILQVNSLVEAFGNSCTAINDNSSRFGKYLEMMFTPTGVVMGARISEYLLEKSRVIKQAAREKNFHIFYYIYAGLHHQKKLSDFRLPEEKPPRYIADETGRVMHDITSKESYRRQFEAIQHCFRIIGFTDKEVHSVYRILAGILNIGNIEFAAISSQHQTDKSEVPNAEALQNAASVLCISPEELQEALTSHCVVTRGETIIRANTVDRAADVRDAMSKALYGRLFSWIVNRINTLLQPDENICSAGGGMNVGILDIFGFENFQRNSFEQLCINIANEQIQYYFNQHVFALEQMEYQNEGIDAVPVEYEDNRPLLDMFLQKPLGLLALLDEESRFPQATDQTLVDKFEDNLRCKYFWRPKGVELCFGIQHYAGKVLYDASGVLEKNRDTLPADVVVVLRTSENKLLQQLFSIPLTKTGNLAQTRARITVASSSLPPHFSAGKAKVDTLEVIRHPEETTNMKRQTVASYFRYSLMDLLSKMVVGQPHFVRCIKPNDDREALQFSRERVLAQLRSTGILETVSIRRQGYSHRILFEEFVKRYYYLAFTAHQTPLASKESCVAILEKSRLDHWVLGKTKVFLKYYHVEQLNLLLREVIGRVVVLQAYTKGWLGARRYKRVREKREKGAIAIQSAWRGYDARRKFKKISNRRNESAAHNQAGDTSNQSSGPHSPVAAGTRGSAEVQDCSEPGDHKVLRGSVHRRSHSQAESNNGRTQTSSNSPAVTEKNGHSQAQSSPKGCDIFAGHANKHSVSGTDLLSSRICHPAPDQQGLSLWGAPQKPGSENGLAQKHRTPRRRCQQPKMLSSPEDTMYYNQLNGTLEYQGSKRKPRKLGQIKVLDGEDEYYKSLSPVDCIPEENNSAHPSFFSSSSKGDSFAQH
In words: KINOMEscan panel screen. It counts as binding. Particulars: read-out: Percent Control(%).

Test [23] deals with T16, NDR1 (Homo sapiens, UniProt Q15208).
T16 construct: purchased DiscoveRx KINOMEscan (Ambit Biosciences)
Description: KINOMEscan panel screen. In kind it is binding. Particulars: read-out: Percent Control(%).

Structures are written as SMILES.

T11 sequence (Q12866 21-999): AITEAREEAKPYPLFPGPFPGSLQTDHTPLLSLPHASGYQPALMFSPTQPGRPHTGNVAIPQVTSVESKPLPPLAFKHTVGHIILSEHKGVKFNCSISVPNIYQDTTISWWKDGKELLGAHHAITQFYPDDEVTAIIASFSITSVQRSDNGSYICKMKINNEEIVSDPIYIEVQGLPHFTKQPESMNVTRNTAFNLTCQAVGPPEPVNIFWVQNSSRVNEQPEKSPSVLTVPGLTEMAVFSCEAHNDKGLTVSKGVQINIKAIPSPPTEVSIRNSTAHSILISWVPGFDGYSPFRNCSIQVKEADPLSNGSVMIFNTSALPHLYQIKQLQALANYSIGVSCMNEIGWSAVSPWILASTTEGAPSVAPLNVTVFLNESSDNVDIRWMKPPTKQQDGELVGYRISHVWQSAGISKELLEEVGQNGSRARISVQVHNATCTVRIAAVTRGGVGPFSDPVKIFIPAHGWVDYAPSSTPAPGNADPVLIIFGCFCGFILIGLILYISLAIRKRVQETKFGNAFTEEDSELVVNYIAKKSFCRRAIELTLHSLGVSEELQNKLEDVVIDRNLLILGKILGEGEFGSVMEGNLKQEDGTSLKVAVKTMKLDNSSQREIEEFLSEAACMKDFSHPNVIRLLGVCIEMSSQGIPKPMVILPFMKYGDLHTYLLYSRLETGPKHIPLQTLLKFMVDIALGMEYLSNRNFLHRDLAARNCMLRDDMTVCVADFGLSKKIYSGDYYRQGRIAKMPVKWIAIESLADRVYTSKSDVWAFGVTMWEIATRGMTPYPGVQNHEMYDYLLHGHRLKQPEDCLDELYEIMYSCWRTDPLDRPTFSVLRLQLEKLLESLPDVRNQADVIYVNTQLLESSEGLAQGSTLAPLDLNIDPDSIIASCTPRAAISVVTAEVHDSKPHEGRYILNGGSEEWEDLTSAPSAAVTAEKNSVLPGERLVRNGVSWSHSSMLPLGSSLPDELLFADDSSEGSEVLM

For `O=C(Nc1ccc(Oc2ncnc3[nH]ncc23)cc1)Nc1ccc(Cl)c(C(F)(F)F)c1` [Compound 1, 1-(4-(1H-pyrazolo[3,4-d]pyrimidin-4-yloxy)phenyl)-3-(4-chloro-3-(trifluoromethyl)phenyl)urea], the half-inhibitory concentration (IC50) in test [1] was > 10 µM.
On to `CC(C)(C)c1cc(NC(=O)Nc2ccc(Oc3ncnc4[nH]ncc34)c(F)c2)no1` [SKLB-677, 1-(4-(1H-pyrazolo[3,4-d]pyrimidin-4-yloxy)-3-fluorophenyl)-3-(5-tert-butylisoxazol-3-yl)urea], for which the IC50 is > 10 µM in [2] and 8 µM in [13]. Moreover, the embryos unaffected in [3] came to 65%. Further, in test [3], the “embryos with mild or moderate posteriorized phenotypes” value stood at 35%. The remaining binding at 10 µM in [4] is 70%; in test [5], 89%; in [6], 100%; in test [7], 1.8%; in [8] it was 11%; in [9], 3.2%. Moreover, the remaining binding at 10 µM in test [10] came to 13%; in test [11], 87%; in [12], 41%; in test [14] it was 72%; in test [18], 0%; in test [19], 80%. Moreover, the remaining binding at 10 µM came out at 1.9% in [20], 26% in test [21], 17% in [22] and 58% in [23]. For the same compound, in [15], the “average LTC-IC colony numbers of three normal PBMC samples” value is “almost not changed”. Besides, the “average LTC-IC colony numbers of three samples compared with control” value was 30% in test [16] (1 nM) and 10% in test [16] (10 nM). Besides, the embryo dorsalization entry in [17] is given as “led to embryo dorsalization in a dose-dependent manner”.
